# From US20040138145A1, “Application of intestinal biliary acid reuptake inhibitors for the prevention and treatment of alzheimer's disease” (Aventis Pharma S.A., priority 2002, published 2004)
# Columns and labels:
# Aβ peptide = test: Cerebral Aβ peptide levels (soluble and total brain fractions) in Tg53 transgenic mice, immunoelectrochemoluminescence assay; format: in vivo, mouse; conditions: for levels of total Aβ / levels of total Aβ reduced compared with control group: Test 3; for levels of total Aβ: control 108.1±8.5
# plasma cholesterol = test: Plasma cholesterol level in Tg53 transgenic mice after treatment in feed; format: in vivo, mouse
# Experimental: The compound A in powdered form was mixed at the dose of 0.01% (weight/weight) with standard feed in powdered form.
# Transgenic mice Tg53 (overexpressing the human APP transgene carrying the “Swedish” and “London” mutations, (2002 Wirths, et al. (2002). Brain Pathol. 12, 275-286), 8-10 week old females, were treated for 3 weeks. The mice were housed in an individual cage with drink being available ad libitum. Every day, 6 grams of powdered food (supplemented or otherwise with compound A) were distributed in each cage. Two groups of 11 to 12 animals (control regimen or regimen supplemented with compound A) were used. At the end of the treatment, a blood sample was collected and the plasma cholesterol level was determined using an automated device for biological analysis.
structure (smiles),measurement,setting,value
CCCC[C@]1(CC)CS(=O)(=O)c2ccc(N(C)C)cc2[C@@H](c2cccc(NC(=O)CCCCNC[C@H](O)[C@@H](O)[C@H](O)[C@H](O)CO)c2)[C@H]1O [compound A],decrease in the cerebral level of soluble Aβ peptide compared to control regimen group,"Aβ peptide; Test 1, Tg53 females 8-10 weeks old, 0.01% (w/w) in feed, 3 weeks, p=0.0103",18%
same,cerebral levels of total peptide Aβ,"Aβ peptide; Test 2, female transgenic mice 15.5 weeks old at end of treatment, 0.01% in feed, n=8, control 364.2±40.9",196.3±17.8 ng/g of tissue
same,reduction in the cerebral level of soluble Aβ peptide compared with control regime group,"Aβ peptide; Test 2, female transgenic mice 15.5 weeks old at end of treatment, 0.01% in feed, p=0.0001",40%
same,cerebral levels of total peptide Aβ reduced compared with control regime group,"Aβ peptide; Test 2, female transgenic mice 15.5 weeks old at end of treatment, 0.01% in feed, p=0.0017",46%
same,levels of total Aβ,"Aβ peptide; 0.0001% in feed, n=8",85.4±4.1 ng/g of tissue
same,levels of total Aβ reduced compared with control group,"Aβ peptide; 0.0001% in feed, p=0.04",21%
same,levels of total Aβ,"Aβ peptide; 0.001% in feed, n=10",86.5±5.9 ng/g of tissue
same,levels of total Aβ reduced compared with control group,"Aβ peptide; 0.001% in feed, p=0.050",20%
same,levels of total Aβ,"Aβ peptide; 0.01% in feed, n=10",90.5±6.9 ng/g of tissue
same,levels of total Aβ reduced compared with control group,"Aβ peptide; 0.01% in feed, p=0.123, ns",16%
same,plasma cholesterol level,"plasma cholesterol; Test 1, Tg53 females 8-10 weeks old, 0.01% (w/w) in feed, 3 weeks, n=11, control 0.72±0.023",0.62 ± 0.030 g/L
same,plasma cholesterol level reduced compared to control regimen group,"plasma cholesterol; Test 1, Tg53 females 8-10 weeks old, 0.01% (w/w) in feed, 3 weeks, p=0.0154",14%
same,plasma cholesterol level,"plasma cholesterol; Test 2, female transgenic mice 15.5 weeks old at end of treatment, 0.01% in feed, n=8, control 0.85±0.03",0.70 ± 0.03 g/L
same,plasma cholesterol level reduced compared with control regime group,"plasma cholesterol; Test 2, female transgenic mice 15.5 weeks old at end of treatment, 0.01% in feed, p=0.0037",18%
